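Assay format: 96-well plates, 48-hour exposure. GI50 marks 50% less growth. TGI marks complete inhibition of growth.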
Experiments:
Assay in all cases: NCI-60 cell line screen, 48 h
[1] = system: SK-MEL-5 melanoma
[2] = system: OVCAR-4 ovarian
[3] = system: NCI-H226 lung
[4] = system: A549 NSCLC
[5] = system: NCI-H23 lung
[6] = system: TK-10 renal
[7] = system: SR leukemia
[8] = system: SNB-19 CNS
[9] = system: PC-3 prostate
[10] = system: NCI/ADR-RES ovarian

Row | SMILES | TGI [1] [µM] | TGI [2] [µM] | TGI [3] [µM] | TGI [4] [µM] | TGI [5] [µM] | TGI [6] [µM] | TGI [7] [µM] | TGI [8] [µM] | GI50 [1] [µM] | GI50 [2] [µM] | GI50 [3] [µM] | GI50 [9] [µM] | TGI [9] [µM] | GI50 [4] [µM] | GI50 [5] [µM] | GI50 [6] [µM] | GI50 [10] [µM] | TGI [10] [µM] | GI50 [8] [µM] | GI50 [7] [µM]
1 | Cc1ccccc1NC(=O)CC(=O)NNCC(=O)Nc1nnc(-c2ccccc2)s1 | > 100 | 33.5 | > 100 | > 100 | > 100 | > 100 | > 100 | > 100 | – | – | – | – | – | – | – | – | – | – | – | –
2 | CCC12C=C(C(=O)OC)N3c4ccccc4C4CCN(CCC1)C2C43 (centres undefined) | > 100 | > 100 | 82.5 | > 100 | > 100 | > 100 | – | > 100 | – | – | – | – | – | – | – | – | – | – | – | –
3 | CCCCC(C(=O)C(=O)Nc1ccccc1CC)C(=O)C(C)C (centres undefined) | > 100 | > 100 | > 100 | > 100 | > 100 | > 100 | – | > 100 | – | – | – | – | – | – | – | – | – | – | – | –
4 | COc1ccc(-c2c(Nc3ccccn3)nc3c(C4=CCCCC4)c(-c4ccccc4)[nH]n3c2=O)cc1 | > 100 | > 100 | 17.8 | > 100 | 24.1 | 19.1 | – | 17.2 | 2.67 | 2.31 | 2.78 | 2.17 | > 100 | 1.94 | 4.17 | 4.82 | 2.57 | > 100 | 3.12 | –
5 | CN(C)CCCC1(c2ccc(F)cc2)OCc2cc(-c3csc4ccccc34)ccc21 (centres undefined) | 3.17 | 3.28 | 3.52 | 3.66 | 3.02 | 3.16 | – | 3.04 | 1.77 | 1.68 | 1.8 | 1.73 | 3.29 | 1.82 | 1.55 | 1.6 | 1.59 | 3.07 | 1.6 | –
6 | ON1CCc2c([nH]c3ccccc23)C1c1ccc(Cl)cc1 (centres undefined) | – | – | 73 | > 100 | 86.9 | > 100 | > 100 | > 100 | – | – | – | – | – | – | – | – | – | – | – | –
7 | O=C(/C=C(\[O-])c1ccccc1)CCCCCCC(=O)/C=C(\[O-])c1ccccc1.O=C(/C=C(\[O-])c1ccccc1)CCCCCCC(=O)/C=C(\[O-])c1ccccc1.O=C(/C=C(\[O-])c1ccccc1)CCCCCCC(=O)/C=C(\[O-])c1ccccc1.[Y+3].[Y+3] | > 50 | > 50 | > 50 | > 50 | > 50 | > 50 | – | > 50 | 34.8 | 14.2 | 39.2 | – | – | > 50 | 13.4 | > 50 | – | – | 19 | –
8 | CN(C)c1ccc(/C=C2\CCc3ccccc3C2=O)cc1Br | 76.8 | > 100 | > 100 | > 100 | > 100 | > 100 | > 100 | > 100 | – | – | – | – | – | – | – | – | – | – | – | –
9 | Nc1ccccc1C(=O)/C=C/c1ccccc1O | > 100 | > 100 | > 100 | > 100 | > 100 | > 100 | – | > 100 | – | – | – | – | – | – | – | – | – | – | – | –
10 | O=C(O)c1cn(C2CC2)c2cc(N3CCN(C(=O)N(c4ccccc4)c4nc(-c5ccccc5)cs4)CC3)c(F)cc2c1=O | > 100 | > 100 | – | > 100 | – | 32.6 | – | > 100 | 0.717 | 0.526 | – | – | – | 0.3 | – | 1.09 | – | – | 0.416 | –
11 | CNCc1cccc2c1OCCOCCOCCNS(=O)(=O)c1ccc(cc1)-c1cnc(N)c(n1)C(=O)N2 | 3.29 | 6.42 | 8.09 | 4.82 | 7.72 | 8.49 | 13.3 | 9.9 | 1.69 | 1.5 | 2.21 | – | – | 1.58 | 2.22 | 1.98 | 84.3 | > 100 | 2.45 | 0.346
12 | COC(=O)C1CC(=O)O[C@H]1c1ccc(OC)c(OC)c1 (some centres undefined) | > 100 | > 100 | > 100 | > 100 | > 100 | > 100 | > 100 | – | – | – | – | – | – | – | – | – | – | – | – | –
13 | CN(C)c1ccc(/C=c2/sc3nc(=O)c(-c4ccccc4NC(=O)C(F)(F)F)nn3c2=O)cc1 | > 100 | > 100 | > 100 | > 100 | > 100 | > 100 | > 100 | > 100 | – | – | – | – | – | – | – | – | – | – | – | –
14 | O/N=C1/C(=C/c2ccc(OCc3ccccc3)cc2)CCCC1C(NO)c1ccc(OCc2ccccc2)cc1 (centres undefined) | > 100 | 57.5 | > 100 | > 100 | > 100 | – | > 100 | > 100 | – | – | – | – | – | – | – | – | – | – | – | –
15 | CC(=O)NC(CCCNC(=O)OCc1ccccc1)C(=O)NCc1ccccc1 (centres undefined) | > 100 | > 100 | > 100 | > 100 | > 100 | > 100 | – | > 100 | – | – | – | – | – | – | – | – | – | – | – | –
16 | CN(C)[C@@H]1C(=O)C(C(=O)NCc2nc3[nH]cnc(=S)c3[nH]2)=C(O)[C@@]2(O)C(=O)C3=C(O)c4c(O)cccc4[C@@](C)(O)[C@H]3C[C@@H]12 | > 100 | > 100 | – | > 100 | > 100 | – | > 100 | > 100 | 24.8 | 1.13 | – | 29.7 | > 100 | > 100 | 8.85 | – | 6.13 | > 100 | > 100 | 1.92
17 | O=[N+]([O-])c1ccc(/C=C/c2ccc(/C=C/c3ccc([N+](=O)[O-])cc3[N+](=O)[O-])cc2)c([N+](=O)[O-])c1 | > 100 | > 100 | > 100 | > 100 | > 100 | > 100 | – | – | – | – | – | – | – | – | – | – | – | – | – | –
18 | CCOC(OCC)(OCC)C(Br)CC (centres undefined) | > 100 | > 100 | > 100 | > 100 | > 100 | > 100 | 49 | > 100 | – | – | – | – | – | – | – | – | – | – | – | –
19 | O=C(CC1(O)C(=O)Nc2c(Cl)ccc(Cl)c21)c1ccc(Cl)cc1 (centres undefined) | – | 41.4 | > 100 | > 100 | 46.5 | > 100 | – | > 100 | – | – | – | – | – | – | – | – | – | – | – | –
20 | N#Cc1c(CC(=O)O)cc(=O)n2c1[nH]c1ccccc12 | > 100 | > 100 | > 100 | > 100 | > 100 | > 100 | > 100 | > 100 | – | – | – | – | – | – | – | – | – | – | – | –
